test system: Respiratory Syncytial Virus; assay: In vitro screening for activity against RSV (tetrazolium-based colorimetric assay, protection against viral cytopathology); assay type: cell-based; settings: Table 1; RSV in HeLa cells, MTT, seven days after infection; pEC50 = -log of EC50 in molar units
Excerpt: The percent protection against cytopathology caused by viruses (antiviral activity or EC50) achieved by tested compounds and their cytotoxicity (CC50) are both calculated from dose-response curves. The selectivity of the antiviral effect is represented by the selectivity index (SI), calculated by dividing the CC50 (cytotoxic dose for 50% of the cells) by the EC50 (antiviral activity for 50% of the cells). The tables in the above experimental part list the category to which each of the prepared compounds belong: Compounds belonging to activity category “A” have a pEC50 (−log of EC50 when expressed in molar units) equal to or more than 7. Compounds belonging to activity category “B” have a pEC50 value between 6 and 7.
Automated tetrazolium-based colorimetric assays were used for determination of EC50 and CC50 of test compounds. Flat-bottom, 96-well plastic microtiter trays were filled with 180 μl of Eagle's Basal Medium, supplemented with 5% FCS (0% for FLU) and 20 mM Hepes buffer. Subsequently, stock solutions (7.8× final test concentration) of compounds were added in 45 μl volumes to a series of triplicate wells so as to allow simultaneous evaluation of their effects on virus- and mock-infected cells. Five five-fold dilutions were made directly in the microtiter trays using a robot system. Untreated virus controls, and HeLa cell controls were included in each test. Approximately 100 TCID50 of Respiratory Syncytial Virus was added to two of the three rows in a volume of 50 μl. The same volume of medium was added to the third row to measure the cytotoxicity of the compounds at the same concentrations as those used to measure the antiviral activity. After two hours of incubation, a suspension (4×10^5 cells/ml) of HeLa cells was added to all wells in a volume of 50 μl. The cultures were incubated at 37° C. in a 5% CO2 atmosphere. Seven days after infection the cytotoxicity and the antiviral activity was examined spectrophotometrically. To each well of the microtiter tray, 25 μl of a solution of MTT (3-(4,5-dimethylthiazol-2-yl)-2,5-diphenyltetrazolium bromide) was added. The trays were further incubated at 37° C. for 2 hours, after which the medium was removed from each cup. Solubilization of the formazan crystals was achieved by adding 100 μl 2-propanol. Complete dissolution of the formazan crystals were obtained after the trays have been placed on a plate shaker for 10 min. Finally, the absorbances were read in an eight-channel computer-controlled photometer (Multiskan MCC, Flow Laboratories) at two wavelengths (540 and 690 nm). The absorbance measured at 690 nm was automatically subtracted from the absorbance at 540 nm, so as to eliminate the effects of non-specific absorption.
The percent protection against cytopathology caused by viruses (antiviral activity or EC50) achieved by tested compounds and their cytotoxicity (CC50) were both calculated from dose-response curves. The selectivity of the antiviral effect is represented by the selectivity index (SI), calculated by dividing the CC50 (cytotoxic dose for 50% of the cells) by the EC50 (antiviral activity for 50% of the cells).

Structure (SMILES)	Activity
C#Cc1ccc(CCO)c(NCc2ccc3nc(N)n(Cc4nc(C)ccc4O)c3c2)c1 [Compound 92]	10.4
Cc1ccc(O)c(Cn2c(N)nc3ccc(CNc4cccc(CO)c4)cc32)n1 [Compound 26]	7.9
Cc1ccc(O)c(Cn2c(N)nc3ccc(CNc4ccc5c(c4)CCC5)cc32)n1 [Compound 36]	7.7
Cc1ccc(O)c(Cn2c(N)nc3ccc(CNc4cccc(Cl)c4C)cc32)n1 [Compound 29]	7.8
CC(=O)Nc1ccc(NCc2ccc3nc(N)n(Cc4nc(C)ccc4O)c3c2)cc1 [Compound 53]	7.5
Cc1ccc(O)c(Cn2c(N)nc3ccc(CNc4ccccc4Br)cc32)n1 [Compound 20]	8.0
Cc1ccc(O)c(Cn2c(N)nc3ccc(CNc4ccc(F)c(F)c4)cc32)n1 [Compound 55]	7.4
Cc1ccc(O)c(Cn2c(N)nc3ccc(CNc4ccccc4C(N)=O)cc32)n1 [Compound 39]	7.7
CC(=O)O.COc1ccccc1NCc1ccc2nc(N)n(Cc3nc(C)ccc3O)c2c1 [Compound 7]	8.5
CCc1cccc(NCc2ccc3nc(N)n(Cc4nc(C)ccc4O)c3c2)c1 [Compound 18]	8.0
COC(=O)c1cc(NCc2ccc3nc(N)n(Cc4nc(C)ccc4O)c3c2)cc(C(=O)OC)c1 [Compound 64]	7.3
Cc1ccc(O)c(Cn2c(N)nc3ccc(CNc4cccc(S(=O)(=O)CCO)c4)cc32)n1 [Compound 33]	7.8
COc1ccc(NCc2ccc3nc(N)n(Cc4nc(C)ccc4O)c3c2)cc1OC [Compound 61]	7.3
Cc1ccc(O)c(Cn2c(N)nc3ccc(CNc4cccc(OCc5ccccc5)c4)cc32)n1 [Compound 77]	6.8
Cc1cccc(NCc2ccc3nc(N)n(Cc4nc(C)ccc4O)c3c2)c1 [Compound 1, 2-[2-Amino-6-(mtolylamino-methyl)-benzoimidazol-1-ylmethyl]-6-methyl-pyridin-3-ol]	8.6
CCOc1cccc(NCc2ccc3nc(N)n(Cc4nc(C)ccc4O)c3c2)c1 [Compound 24]	7.9
Cc1ccc(O)c(Cn2c(N)nc3ccc(CNc4cccc(NS(C)(=O)=O)c4)cc32)n1 [Compound 27]	7.9
Cc1ccc(O)c(Cn2c(N)nc3ccc(CNc4cc(Cl)c(O)c(Cl)c4)cc32)n1 [Compound 72]	7.1

same assay, conditions: Table 2; RSV in HeLa cells, MTT, seven days after infection; pEC50 = -log of EC50 in molar units

Structure (SMILES)	Activity
Cc1ccc(O)c(Cn2c(N)nc3cc(CNc4cccc(Br)c4)ccc32)n1 [Compound 126]	<4.0
Cc1ccc(O)c(Cn2c(N)nc3cc(CNc4cccc(C)c4C)ccc32)n1 [Compound 119]	6.4
Cc1ccc(O)c(Cn2c(N)nc3cc(CNc4cccc5cccnc45)ccc32)n1 [Compound 123]	<4.0
Cc1cc(C)cc(NCc2ccc3c(c2)nc(N)n3Cc2nc(C)ccc2O)c1 [Compound 117]	6.8
Cc1ccc(O)c(Cn2c(N)nc3cc(CNc4cccc(Cl)c4)ccc32)n1 [Compound 122]	<4.0
CCc1cccc(NCc2ccc3c(c2)nc(N)n3Cc2nc(C)ccc2O)c1 [Compound 125]	<4.0

same assay, conditions: Table 3; RSV in HeLa cells, MTT, seven days after infection; pEC50 = -log of EC50 in molar units

Structure (SMILES)	Activity
CNC(=O)CCN(Cc1ccc2nc(N)n(Cc3nc(C)ccc3O)c2c1)c1cccc(C)c1.Cl [Compound 172]	8.8
Cc1cccc(N(CCCS(N)(=O)=O)Cc2ccc3nc(N)n(Cc4nc(C)ccc4O)c3c2)c1 [Compound 168]	9.3
Cc1cccc(N(Cc2ccc3nc(N)n(Cc4nc(C)ccc4O)c3c2)Cc2c[nH]cn2)c1 [Compound 176]	8.3
Cc1ccc(O)c(Cn2c(N)nc3ccc(CN(C)c4ccccc4CCO)cc32)n1 [Compound 166]	6.8
Cc1cccc(N(CCOCCO)Cc2ccc3nc(N)n(Cc4nc(C)ccc4O)c3c2)c1.Cl [Compound 171]	8.9
Cc1ccc(O)c(Cn2c(N)nc3ccc(CN(CCC(N)=O)c4cc(Cl)cc(Cl)c4)cc32)n1 [Compound 167]	9.4

same assay, conditions: Table 4; RSV in HeLa cells, MTT, seven days after infection; pEC50 = -log of EC50 in molar units

Structure (SMILES)	Activity
Cc1ccc(O)c(Cn2cnc3ccc(CNc4cc(Cl)cc(Cl)c4)cc32)n1 [Compound 185]	6.1
Cc1ccc(CCCO)c(NCc2ccc3ncn(Cc4nc(C)ccc4O)c3c2)c1 [Compound 191]	7.9
Cc1cc(C)cc(NCc2ccc3ncn(Cc4nc(C)ccc4O)c3c2)c1 [Compound 184]	6.7

same assay, conditions: Table 5a; RSV in HeLa cells, MTT, seven days after infection; pEC50 = -log of EC50 in molar units

Structure (SMILES)	Activity
CNc1nc2cc(CO)ccc2n1Cc1nc(C)ccc1O [Compound 202]	<4.0
Cc1ccc(O)c(Cn2c(N)nc3ccc(CCCN)cc32)n1.Cl [Compound 196]	7.7

same assay, conditions: Table 5b; RSV in HeLa cells, MTT, seven days after infection; pEC50 = -log of EC50 in molar units

Structure (SMILES)	Activity
Cc1ccc(CCCO)c(NCc2ccc3nc(N)n(Cc4cccc5cccnc45)c3c2)c1 [Compound 214]	7.3
Cc1ccc(CCCO)c(NCc2ccc3nc(N)n(Cc4cccc5cccnc45)c3c2)c1 [Compound 208]	7.9
COc1ccc(C)nc1Cn1c(N)nc2ccc(CNc3cc(C)ccc3CCCO)cc21 [Compound 234]	<4
COc1ccc(C)nc1Cn1c(N)nc2ccc(CNc3cc(C)ccc3CCCO)cc21 [Compound 209]	7.8
Cc1ccc(CCCO)c(NCc2ccc3nc(N)n(Cc4cccc5c4ncn5C)c3c2)c1 [Compound 235]	<4
Cc1cccc(N(CCCO)Cc2ccc3nc(N)n(Cc4cccc5cccnc45)c3c2)c1 [Compound 225]	<4

same assay, conditions: Table 6; numeric activity values, pEC50 (−log of EC50 in molar units)

Structure (SMILES)	Activity
Cc1ccc(O)c(Cn2cnc3cc(CNc4cc(Cl)cc(Cl)c4)ccc32)n1 [Compound 290]	<4.0
Cc1ccc(O)c(Cn2cnc3ccc(NC(=O)c4cccnc4)cc32)n1 [Compound 278]	<4.0
Cc1ccc(O)c(Cn2cnc3cc(CNCCc4cccn4C)ccc32)n1 [Compound 243]	4.2
CC(=O)c1cccc(NCc2ccc3ncn(Cc4nc(C)ccc4O)c3c2)c1 [Compound 282]	<4.0
Cc1ccc(O)c(Cn2cnc3cc(CNCc4ccncc4)ccc32)n1 [Compound 270]	<4.0
Cc1ccc(O)c(Cn2cnc3cc(CNCCCC4CCC(=O)N4)ccc32)n1 (centres unmarked) [Compound 241]	4.5
Cc1ccc(O)c(Cn2cnc3cc(CNCCCN4CCOCC4)ccc32)n1.Cl [Compound 258]	<4.0
Cc1ccc(O)c(Cn2cnc3cc(CNCCc4ccccc4)ccc32)n1 [Compound 253]	<4.0
Cc1ccc(O)c(Cn2cnc3cc(CNc4cccc(F)c4)ccc32)n1 [Compound 293]	<4.0
COCCNCc1ccc2c(c1)ncn2Cc1nc(C)ccc1O [Compound 269]	<4.0
Cc1ccc(O)c(Cn2cnc3cc(NC(=O)Cc4ccccn4)ccc32)n1 [Compound 281]	<4.0
Cc1ccc(O)c(Cn2cnc3cc(CNCCN(C)C)ccc32)n1 [Compound 255]	<4.0
CC(=O)c1cccc(NCc2ccc3c(c2)ncn3Cc2nc(C)ccc2O)c1 [Compound 286]	<4.0
Cc1ccc(O)c(Cn2cnc3cc(C(O)c4ccccc4)ccc32)n1.O=C(O)C(=O)O (centres unmarked) [Compound 274]	<4.0
Cc1cc(C)cc(NCc2ccc3c(c2)ncn3Cc2nc(C)ccc2O)c1 [Compound 289]	<4.0
Cc1ccc(O)c(Cn2cnc3ccc(NC(=O)Cc4ccccn4)cc32)n1 [Compound 276]	<4.0
Cc1ccc(O)c(Cn2cnc3ccc(NC(=O)CCc4ccccc4)cc32)n1 [Compound 277]	<4.0
Cc1ccc(O)c(Cn2cnc3ccc(CNc4cccc(C)c4C)cc32)n1 [Compound 284]	<4.0
Cc1ccc(O)c(Cn2cnc3cc(CNc4cccc(C)c4C)ccc32)n1 [Compound 295]	<4.0
Cc1ccc(O)c(Cn2cnc3cc(CCc4ccccc4)ccc32)n1 [Compound 250]	<4.0
Cc1ccc(O)c(Cn2cnc3cc(CNc4cccc(Cl)c4)ccc32)n1 [Compound 288]	<4.0

From patent US8044073B2, “Aminobenzimidazoles and benzimidazoles as inhibitors of respiratory syncytial virus replication” (Tibotec Pharmaceuticals, priority 2003, dated 2011)
